Consider four molecules from patent US6153589A, “2,3-epoxy alcohols, acids and derivatives as anti retroviral chemotherapeutic agents” (The United States of America as represented by the …, priority 1992, dated 2000).

Like-named read-outs stand apart in the source and are kept apart here.

In test [1] the test system is HIV-2 protease. Briefly: HIV protease cleavage of nonapeptide (HPLC). Format: biochemical. The following applies: 0.5 μl of 10 μg/μl inhibitor in DMSO per 10 μl reaction; pH 6.5, room temperature; pentapeptide product relative to DMSO control; sampled at ca. 16 and 40 hr (time not given). The method, boiled down:
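Nonapeptide substrate Val-Ser-Gln-Asn-Tyr-Pro-Ile-Val-Gln-NH2 incubated with protease (ca. 100 ng) in 200 mM sodium phosphate, 1 M NaCl, 5% glycerol, 0.25% NP-40, pH 6.5, at room temperature with inhibitor added from a 10 μg/μl DMSO stock. Samples taken at ca. 16 and 40 h; RP-HPLC (206 nm) measured pentapeptide product relative to DMSO control.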

Test [2] has as its target T1, porcine Renin (Sus scrofa, UniProt A0A287APG1).
T1 construct: purchased Sigma
Briefly: Porcine Renin cleavage of porcine tetradecapeptide (HPLC). The following applies: 0.5 μl of 50 μg/μl inhibitor in DMSO in 50 μl; pH 6.00, room temperature, 70 min; relative to uninhibited control. Type of test: biochemical. The source says: Renin Activity: Porcine Renin Cleavage of Porcine Tetradecapeptide
Proteolytic enzymes are ubiquitous in many living systems. Renin is an asparxyl protease found in mammals which is responsible for the regulation of blood pressure. Structural and functional similarities between Renin and retroviral proteases have been previously noted (Pearl, L. H., Taylor, W. R., (1987) Nature, 329, 351-354). Consequently, successful therapeutic inhibition of retroviral proteases depends on the ability of the inhibitor to inhibit the retroviral enzyme while having a greatly diminished effect on normally occurring enzymes like Renin. The failure to inhibit the desired enzyme selectively may have an adverse effect on normal biochemical functions. The similarity of Renin to retroviral proteases and its viral normal bodily function makes it an attractive system in which to examine inhibitory selectivity.
Renin activity was determined by a method similar to that described above for the HIV protease. A solution containing 0.37 m unit (0.5 μl of stock solution containing 0.75 m unit/μl) of porcine Renin (Sigma) was added to 5 μg of porcine angiotensinogen in 50 μl of 0.1 M citrate-phosphate buffer (pH 6.00) containing 0.25% NP-40. A DMSO solution containing the inhibitor (0.5 μl of a 50 μg/μl solution) was added and the reaction was allowed to incubate at room temperature for 70 min. The entire mixture was analyzed by HPLC chromatographic analysis was perforemd on a 4.6×250 mm Lichrosorb RP-18 column eluting with a gradient of 0-50% acetonitrile in 0.02 M KH2 Po4 (pH 4.7) over 30 min monitoring absorbance at 206 nm. Appearance of both the tetrapeptide and the decapeptide products may be monitored under these conditions. Enzyme activity is expressed as the amount of tetrapeptide produced relative to an uninhibited control, and are summarized in Table 3 below.

For test [3], the system named is HIV1 IIIb. Kind of test: microbe, parasite or virus in culture. The following applies: Human immunodeficiency virus 1, IIIB; for viability at 10 µg/mL: 10 ug/ml; for viability at 80.2 µg/mL: 80.2 ug/ml; for viability at 23.8 µg/mL: 23.8 ug/ml; for viability at 14 µg/mL: 14 ug/ml; for viability at 140 µg/mL: 140 ug/ml; for viability at 38 µg/mL: 38 ug/ml; for viability at 35.2 µg/mL: 35.2 ug/ml; for viability at 20.7 µg/mL: 20.7 ug/ml; for viability at 3.52 µg/mL: 3.52 ug/ml. Type of test: cell-based. The method in brief: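 Human host cells infected with HIV1 IIIb (virus-producing H9 cells or cell-free virus) and incubated seven days with compound. Viable cells measured by XTT formazan absorbance; response expressed as % of uninfected controls against virus kill %. Some cultures redosed after 3 days.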

T1 sequence (A0A287APG1 24-407): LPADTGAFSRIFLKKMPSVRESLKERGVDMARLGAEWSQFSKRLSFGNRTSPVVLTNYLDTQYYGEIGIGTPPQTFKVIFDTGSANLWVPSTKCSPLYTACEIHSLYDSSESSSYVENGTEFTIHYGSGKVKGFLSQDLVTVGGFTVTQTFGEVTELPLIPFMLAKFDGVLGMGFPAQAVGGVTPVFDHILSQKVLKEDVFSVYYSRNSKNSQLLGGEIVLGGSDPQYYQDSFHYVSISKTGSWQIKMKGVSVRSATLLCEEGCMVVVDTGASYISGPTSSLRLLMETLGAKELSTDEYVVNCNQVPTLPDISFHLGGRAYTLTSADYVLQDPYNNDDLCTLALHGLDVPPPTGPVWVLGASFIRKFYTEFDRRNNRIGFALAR

With `CCCCCCC[C@H]1O[C@H]1CO` [Example 15, (2S-cis)-3-Heptyloxirane Methanol], the “Percent Control Cleavage of Nonapeptide HIV-1 Cleavage Site Fragment” value (“Percent Control Cleavage” for short) in test [1] is listed as 59%. Besides, in test [2], the “Percent control (tetrapeptide produced)” value was 86%. Further, the viability at 92 µg/mL in test [3] (168 h, read-out: Antiviral Effect (viable cells as % of uninfected controls), run 3, 92 ug/ml, source V (cell free virus), virus kill 35.0%) is 60.8%. In addition, the viability at 10 µg/mL is 78.2% in test [3] (168 h, read-out: Antiviral Effect (viable cells as % of uninfected controls), run 4, source V (cell free virus), virus kill 57.0%) and 58.6% in test [3] (168 h, read-out: Antiviral Effect (viable cells as % of uninfected controls), run 5, source V (cell free virus), virus kill 26.0%). Also, the viability at 21.6 µg/mL in test [3] (168 h, read-out: Antiviral Effect (viable cells as % of uninfected controls), run 6*, 21.6 ug/ml, source V (cell free virus), virus kill 31.0%, culture redosed with compound after 3 days) was found to be 32%. The viability at 46 µg/mL in test [3] (H9, 168 h, read-out: Antiviral Effect (viable cells as % of uninfected controls), run 1, 46 ug/ml, source C (virus producing H9 cells), virus kill 15.0%) was determined as 58.3%. The viability at 4.6 µg/mL in test [3] (H9, 168 h, read-out: Antiviral Effect (viable cells as % of uninfected controls), run 2, 4.6 ug/ml, source C (virus producing H9 cells), virus kill 13.0%) worked out at 11.8%.
Take `CCCCCCC[C@@H]1O[C@@H]1CO` [Example 16, (2R-cis)-3-Heptyloxirane Methanol]: the “Percent Control Cleavage” value in test [1] was 42%. In addition, the “Percent control (tetrapeptide produced)” value in test [2] was determined as 96%. The viability at 160 µg/mL in test [3] (168 h, read-out: Antiviral Effect (viable cells as % of uninfected controls), run 4, 160 ug/ml, source V (cell free virus), virus kill 40.0%) came to 62.6%. Besides, the viability at 80.2 µg/mL in test [3] (168 h, read-out: Antiviral Effect (viable cells as % of uninfected controls), run 5, source V (cell free virus), virus kill 60.0%) amounted to 97.3%; in test [3] (168 h, read-out: Antiviral Effect (viable cells as % of uninfected controls), run 6, source V (cell free virus), virus kill 30.0%), 88.6%; in test [3] (H9, 168 h, read-out: Antiviral Effect (viable cells as % of uninfected controls), run 2, source C (virus producing H9 cells), virus kill 15.0%), 69.6%; in test [3] (H9, 168 h, read-out: Antiviral Effect (viable cells as % of uninfected controls), run 3, source C (virus producing H9 cells), virus kill 15.0%), 84.5%. The viability at 23.8 µg/mL in test [3] (168 h, read-out: Antiviral Effect (viable cells as % of uninfected controls), run 7, source V (cell free virus), virus kill 22.0%) stood at 35.9%; in test [3] (168 h, read-out: Antiviral Effect (viable cells as % of uninfected controls), run 8*, source V (cell free virus), virus kill 28.0%, culture redosed with compound after 3 days), 39.7%. Moreover, the viability at 10.6 µg/mL in test [3] (H9, 168 h, read-out: Antiviral Effect (viable cells as % of uninfected controls), run 1, 10.6 ug/ml, source C (virus producing H9 cells), virus kill 14.0%) is 27.3%.
`CCCCCCCCC[C@H]1O[C@H]1C(N)=O` [Example 23, (2R-cis)-3-Nonyloxiranecarboxy Amide]: the “Percent Control Cleavage” value in test [1] came to 102%. The “Percent control (tetrapeptide produced)” value in test [2] stood at 88%. The viability at 2.8 µg/mL in test [3] (168 h, read-out: Antiviral Effect (viable cells as % of uninfected controls), run 7, 2.8 ug/ml, source V (cell free virus), virus kill 19.0%) turned out to be 108%. Further, in test [3] (168 h, read-out: Antiviral Effect (viable cells as % of uninfected controls), run 8, 7.6 ug/ml, source V (cell free virus), virus kill 30.0%), the viability at 7.6 µg/mL worked out at 40.2%. In addition, the viability at 3.8 µg/mL in test [3] (168 h, read-out: Antiviral Effect (viable cells as % of uninfected controls), run 9, 3.8 ug/ml, source V (cell free virus), virus kill 52.0%) came to 60.1%. Further, the viability at 14 µg/mL in test [3] (168 h, read-out: Antiviral Effect (viable cells as % of uninfected controls), run 10, source V (cell free virus), virus kill 52.0%) was determined as 60.1%; in test [3] (H9, 168 h, read-out: Antiviral Effect (viable cells as % of uninfected controls), run 6, source C (virus producing H9 cells), virus kill 17.0%), 16%. Besides, the viability at 380 µg/mL in test [3] (168 h, read-out: Antiviral Effect (viable cells as % of uninfected controls), run 11, 380 ug/ml, source V (cell free virus), virus kill 20.0%) came out at 24%. Besides, the viability at 140 µg/mL in test [3] (168 h, read-out: Antiviral Effect (viable cells as % of uninfected controls), run 12, source V (cell free virus), virus kill 20.0%) turned out to be 31%; in test [3] (H9, 168 h, read-out: Antiviral Effect (viable cells as % of uninfected controls), run 4, source C (virus producing H9 cells), virus kill 14.0%), 25.1%. Besides, the viability at 27 µg/mL in test [3] (168 h, read-out: Antiviral Effect (viable cells as % of uninfected controls), run 13*, 27 ug/ml, source V (cell free virus), virus kill 22.0%, culture redosed with compound after 3 days) came out at 79.6%. The viability at 28 µg/mL in test [3] (H9, 168 h, read-out: Antiviral Effect (viable cells as % of uninfected controls), run 1, 28 ug/ml, source C (virus producing H9 cells), virus kill 6.0%) stood at 75.6%. Further, the viability at 76 µg/mL in test [3] (H9, 168 h, read-out: Antiviral Effect (viable cells as % of uninfected controls), run 2, 76 ug/ml, source C (virus producing H9 cells), virus kill 17.0%) worked out at 28.5%. Also, the viability at 38 µg/mL is 35.1% in test [3] (H9, 168 h, read-out: Antiviral Effect (viable cells as % of uninfected controls), run 3, source C (virus producing H9 cells), virus kill 14.0%) and 17% in test [3] (H9, 168 h, read-out: Antiviral Effect (viable cells as % of uninfected controls), run 5, source C (virus producing H9 cells), virus kill 17.0%).
In the case of `CCCCCCCCC[C@@H]1O[C@@H]1C(N)=O` [Example 24, (2S-cis)-3-Nonyloxiranecarboxy Amide], in test [1], the “Percent Control Cleavage” value amounted to 113%. The “Percent control (tetrapeptide produced)” value in test [2] was 106%. Besides, the viability at 35.2 µg/mL in test [3] (168 h, read-out: Antiviral Effect (viable cells as % of uninfected controls), run 5, source V (cell free virus), virus kill 54.6%) is 73%; in test [3] (H9, 168 h, read-out: Antiviral Effect (viable cells as % of uninfected controls), run 1, source C (virus producing H9 cells), virus kill 16.0%) it was 73%. The viability at 20.7 µg/mL in test [3] (168 h, read-out: Antiviral Effect (viable cells as % of uninfected controls), run 6, source V (cell free virus), virus kill 54.6%) came out at 71.4%; in test [3] (168 h, read-out: Antiviral Effect (viable cells as % of uninfected controls), run 8, source V (cell free virus), virus kill 26.0%), 34%; in test [3] (H9, 168 h, read-out: Antiviral Effect (viable cells as % of uninfected controls), run 2, source C (virus producing H9 cells), virus kill 16.0%), 67.4%. Also, the viability at 3.52 µg/mL in test [3] (168 h, read-out: Antiviral Effect (viable cells as % of uninfected controls), run 7, source V (cell free virus), virus kill 26.0%) turned out to be 28.1%; in test [3] (H9, 168 h, read-out: Antiviral Effect (viable cells as % of uninfected controls), run 3, source C (virus producing H9 cells), virus kill 9.0%), 11.3%. Besides, in test [3] (168 h, read-out: Antiviral Effect (viable cells as % of uninfected controls), run 9, 1.34 ug/ml, source V (cell free virus), virus kill 20.0%), the viability at 1.34 µg/mL stood at 41.7%. In addition, the viability at 0.135 µg/mL in test [3] (168 h, read-out: Antiviral Effect (viable cells as % of uninfected controls), run 10*, 0.135 ug/ml, source V (cell free virus), virus kill 23.0%, culture redosed with compound after 3 days) came to 114%. Further, the viability at 2.07 µg/mL in test [3] (H9, 168 h, read-out: Antiviral Effect (viable cells as % of uninfected controls), run 4, 2.07 ug/ml, source C (virus producing H9 cells), virus kill 9.0%) was found to be 10.5%.
